Source: US20240269304A1, “BCL-XL INHIBITOR ANTIBODY-DRUG CONJUGATES AND METHODS OF USE THEREOF” (Novartis AG, priority 2020, published 2024)

Tested on: EBC-1 xenografts
Experiment: In vivo testing of EpCAM ADCs with paclitaxel, EBC-1 xenografts (Example 17)
Set-up: species or system female nude mice
Conditions: Paclitaxel Alone
Experimental: EBC-1 cells were cultured at 37° C. (atmosphere of 5% CO2) in DMEM (Gibco 11965-084) supplemented with 10% FBS (HI-FBS #134K19, Tet-free). Treatment with 0.25% Trypsin (Gibco 25200-056) was used for sub-culturing. To establish EBC-1 xenografts, cells were harvested and re-suspended in a 1:1 v/v mixture of phosphate buffered saline and Matrigel. A total of 5×10^6 cells in a volume of 150 μL were injected subcutaneously in the flanks of female nude mice (Charles River, USA). Tumor growth was monitored regularly post cell inoculation and animals were randomized into treatment groups (n=8) with a mean tumor volume of about 210 mm^3. EpCAM-DANAPA-L11C-P25 ADC, 3207-DANAPA-L11C-P25 isotype control ADC, and EpCAM-DANAPA CysMab control antibody were all dosed in combination with paclitaxel (LC Laboratories, Woburn, MA, Cat #: P-9600) as indicated in FIG. 13. The ADCs and CysMab antibody were administered intravenously (i.v.) once at the start of treatment at 30 mg/kg. Paclitaxel was administered i.v. once at 12.5 mg/kg, 24 h after the ADC or CysMab dose. All reagents were dosed at 10 mL/kg based on the individual mouse body weight. The ADCs and CysMab were formulated at 3 mg/mL in PBS on the day of treatment. Paclitaxel was reconstituted in 50% Ethanol+50% Cremophor EL (Kolliphor EL) at a concentration of 6 mg/mL, and then further diluted to 1.25 mg/mL with sterile saline prior to administration on the day of treatment.
Tumor volume data were analyzed for statistical difference relative to the EpCAM-DANAPA-L 11C-P25 ADC+ paclitaxel combination group. Unpaired two-tailed T-tests were used to make comparisons between groups.
As a measure of efficacy, %T/C values were calculated according to the formula: […]
Tumor regression was calculated according to the formula: […]
Δtumor volumes represent mean tumor volumes on the measurement day minus the mean tumor volume at the start of treatment. The Δtumor volume control value specified above refers to mean tumor volume changes in the vehicle group.

Question: Which results are given for CC(=O)O[C@H]1C(=O)[C@@]2(C)[C@H]([C@H](OC(=O)c3ccccc3)[C@]3(O)C[C@H](OC(=O)[C@H](O)[C@@H](NC(=O)c4ccccc4)c4ccccc4)C(C)=C1C3(C)C)[C@]1(OC(C)=O)CO[C@@H]1C[C@@H]2O [Paclitaxel, paclitaxel]?
Answer: % T/C (Day of Evaluation) (Day 10): 34%; ΔTumor volume (mm^3 ± SEM) (Day of Evaluation) (Day 10): 510.8 ± 158.5 mm^3; Significance vs EpCAM-DANAPA-L11C-P25 ADC on Day 9 (Day of Evaluation) (Day 10, unpaired two-tailed T-test vs EpCAM-DANAPA-L11C-P25 ADC + paclitaxel group): P = 0.0014; Complete Responders (Day of Evaluation) (Day 32, tumors regressed to 0 mm^3): 0/8
